For this assay, the system named is S. aureus wild type strain (ATCC 25923). Put plainly: Antibiotic assay (resazurin, Example 1), S. aureus wild type. It is filed as cell-based, Staphylococcus aureus. The procedure: Bacteria Strain. […] The MRSA were obtained as further described below.
Antibiotic agents. Cyprofloxacin and erythromycin were provided by Sigma-Aldrich. Gentamicin sulfate and vancomycin hydrochloride were provided by Calbiochem.
MRSA. Ten (10) strains of MRSA obtained as described above were tested along with an S. aureus wild type (WT) strain (ATCC25923).
A general note: Resazurin is reduced to fluorescent resorufin, in cell work by metabolically active cells.

[1] abbreviates: S. aureus WT (ATCC 25923), read-out: IC50.
[2] abbreviates: Table 5, same values as IC50 of Table 2, read-out: S. aureus WT ATCC 25923 (toxicity on bacteria).

Each structure is given as a SMILES string. Converted amounts (≈) assume the structure as drawn. Structures can show the parent of a compound that is named as a salt. Where two headings read alike, the source gives them in different places.

`O=C(O)c1cn(C2CC2)c2cc(N3CCNCC3)c(F)cc2c1=O` [Ciprofloxacin, reference compound]: the IC50 (Staphylococcus aureus, ATCC25923, S. aureus WT ATCC 25923, read-out: IC50) is 400 ± 200 nM. For the same compound, for the setting “Staphylococcus aureus, ATCC25923, S. aureus WT ATCC 25923, read-out: Minimum Inhibitory Concentration (MIC)”, the MIC worked out at 47.9 µM (≈ 15.9 µg/mL).
With `O=C(CCc1ccccc1)c1c(O)cc(O)c(C/C=C/c2ccc(O)cc2)c1O` [Compound III], the “Minimum Inhibitory Concentration (MIC)” value (S. aureus WT (ATCC 25923)) is recorded as “(5.81) μM”. Further, the IC50 was 2200 ± 600 nM under setting [1] and 2200 ± 600 nM under setting [2].
As to `COc1ccc(CCC(=O)c2c(O)cc(O)c(C/C=C/c3ccc(O)cc3)c2O)cc1` [Compound II], the “Minimum Inhibitory Concentration (MIC)” value (S. aureus WT (ATCC 25923)) was “(6.47) μM”. The IC50 reads like this: under setting [1], 2700 ± 700 nM; under setting [2], 2700 ± 700 nM.
`COc1cc(O)c(C(=O)CCc2ccc(O)cc2)c(O)c1C/C=C/c1ccc(O)cc1` [Compound I]: the “Minimum Inhibitory Concentration (MIC)” value (S. aureus WT (ATCC 25923)) is “(6.87) μM”. Moreover, the IC50 by setting is: under setting [1], 2800 ± 900 nM; under setting [2], 2800 ± 900 nM.
As for `CN[C@H](CC(C)C)C(=O)N[C@H]1C(=O)N[C@@H](CC(N)=O)C(=O)N[C@H]2C(=O)N[C@H]3C(=O)N[C@H](C(=O)N[C@H](C(=O)O)c4cc(O)cc(O)c4-c4cc3ccc4O)[C@H](O)c3ccc(c(Cl)c3)Oc3cc2cc(c3O[C@@H]2O[C@H](CO)[C@@H](O)[C@H](O)[C@H]2O[C@H]2C[C@](C)(N)[C@H](O)[C@H](C)O2)Oc2ccc(cc2Cl)[C@H]1O` [Vancomycin, vancomycin hydrochloride, reference compound], under “Staphylococcus aureus, ATCC25923”, the IC50 stood at 400 ± 200 nM. Besides, the MIC (Staphylococcus aureus, ATCC25923, read-out: Minimum Inhibitory Concentration (MIC)) amounted to 1.44 µM.

The record behind these values is patent US9499509B2, “Dihydrochalcone derivatives and their use as antibiotic agents” (UNIVERSITÉ DU QUÉBEC À CHICOUTIMI, priority 2012, dated 2016).
